One assay addresses T1, Human mTOR (FLAG-TOR) (Homo sapiens, UniProt P42345).
T1 construct: FLAG
The assay can be described thus: Human mTOR kinase assay with purified enzyme, DELFIA format. The format is biochemical. The procedure, abridged:
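DELFIA readout: Eu-anti-P(T389)-S6K antibody (40 ng/mL, 1 h) on captured His6-S6K from the stopped reaction. Kinase step used purified FLAG-tagged human mTOR with test compound in HEPES (pH 7.4)/MnCl2/DTT buffer, 2 h at room temperature (linear 1–6 h), terminated by EDTA/EGTA.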

For assay [1], the target named is T2, PI3K (Homo sapiens, UniProt P42336).
T2 construct: PI3 Kinase α IC50; other: PI3 Kinase α; other: PI3 Kinase α isoform, fluorescence polarization
The assay can be described thus: Fluorescence polarization assay for PI3K. The format is biochemical. To be noted: PI3 Kinase α; read-out: PI3 Kinase α IC50. The procedure, abridged:
(§1)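 Fluorescence-polarization competition readout: after 30–60 min of PIP2/ATP turnover in 1% DMSO, a stop mix with GST-GRP (70 nM) and red probe (10 nM) was added.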
A general note: In fluorescence polarisation assays a small probe gives low polarisation when free and higher when bound to something large.

Assay [2] has as its target T3, PI3K (Homo sapiens, UniProt P48736).
T3 construct: PI3 Kinase γ IC50; other: PI3 Kinase γ; other: PI3 Kinase γ isoform, fluorescence polarization
The assay can be described thus: Fluorescence polarization assay for PI3K. Type of assay: biochemical. To be noted: PI3 Kinase γ; read-out: PI3 Kinase γ IC50. In a few lines: as §1

The next assay deals with prostate line LNCap. The assay can be described thus: In vitro cell culture growth assay (MTS), LNCap. Type of assay: cell-based. To be noted: Homo sapiens, LNCaP, 72 h, LNCap cells, three days after drug treatment. In a few lines:
(§2)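 Cells were plated and, one day later, treated with inhibitors. Three days after treatment, viable cell density was measured by MTS dye conversion, read as absorbance at 490 nm. Effects are expressed as percent of control growth versus vehicle-treated cells on the same plate.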

The next assay relates to breast line MDA468. The assay can be described thus: In vitro cell culture growth assay (MTS), MDA468. Type of assay: cell-based. To be noted: Homo sapiens, 72 h, MDA468 cells, three days after drug treatment. The procedure, abridged:
as §2

The structures appear in SMILES notation.

T2 sequence (P42336 whole entry, canonical isoform): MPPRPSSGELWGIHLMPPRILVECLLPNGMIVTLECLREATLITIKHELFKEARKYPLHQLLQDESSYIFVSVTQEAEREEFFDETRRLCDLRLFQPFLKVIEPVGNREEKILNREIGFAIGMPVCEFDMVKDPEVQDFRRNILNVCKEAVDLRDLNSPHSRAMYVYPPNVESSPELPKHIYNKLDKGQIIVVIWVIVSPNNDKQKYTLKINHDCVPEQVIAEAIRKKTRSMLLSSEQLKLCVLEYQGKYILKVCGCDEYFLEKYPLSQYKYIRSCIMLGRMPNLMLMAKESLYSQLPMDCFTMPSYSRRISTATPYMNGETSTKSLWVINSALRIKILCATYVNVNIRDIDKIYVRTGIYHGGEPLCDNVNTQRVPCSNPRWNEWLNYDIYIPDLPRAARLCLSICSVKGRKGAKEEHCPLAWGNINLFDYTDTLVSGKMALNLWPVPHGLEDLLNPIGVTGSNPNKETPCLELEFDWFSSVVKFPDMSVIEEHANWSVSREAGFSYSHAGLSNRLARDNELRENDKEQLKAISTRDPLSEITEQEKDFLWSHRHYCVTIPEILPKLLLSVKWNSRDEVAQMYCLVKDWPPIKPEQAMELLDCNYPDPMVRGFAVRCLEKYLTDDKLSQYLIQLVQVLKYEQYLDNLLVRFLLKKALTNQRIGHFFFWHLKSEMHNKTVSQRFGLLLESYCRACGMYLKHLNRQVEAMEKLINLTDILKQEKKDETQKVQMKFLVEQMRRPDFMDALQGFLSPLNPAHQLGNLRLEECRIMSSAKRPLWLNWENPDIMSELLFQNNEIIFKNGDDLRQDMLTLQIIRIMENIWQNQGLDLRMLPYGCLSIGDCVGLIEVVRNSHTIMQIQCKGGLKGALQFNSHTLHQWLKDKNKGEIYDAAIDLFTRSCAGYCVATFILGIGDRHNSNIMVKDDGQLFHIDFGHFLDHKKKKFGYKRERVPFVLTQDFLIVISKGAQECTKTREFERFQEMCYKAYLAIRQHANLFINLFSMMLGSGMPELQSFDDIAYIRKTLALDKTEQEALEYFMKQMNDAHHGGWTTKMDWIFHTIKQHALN
T3 sequence (P48736 whole entry, canonical isoform): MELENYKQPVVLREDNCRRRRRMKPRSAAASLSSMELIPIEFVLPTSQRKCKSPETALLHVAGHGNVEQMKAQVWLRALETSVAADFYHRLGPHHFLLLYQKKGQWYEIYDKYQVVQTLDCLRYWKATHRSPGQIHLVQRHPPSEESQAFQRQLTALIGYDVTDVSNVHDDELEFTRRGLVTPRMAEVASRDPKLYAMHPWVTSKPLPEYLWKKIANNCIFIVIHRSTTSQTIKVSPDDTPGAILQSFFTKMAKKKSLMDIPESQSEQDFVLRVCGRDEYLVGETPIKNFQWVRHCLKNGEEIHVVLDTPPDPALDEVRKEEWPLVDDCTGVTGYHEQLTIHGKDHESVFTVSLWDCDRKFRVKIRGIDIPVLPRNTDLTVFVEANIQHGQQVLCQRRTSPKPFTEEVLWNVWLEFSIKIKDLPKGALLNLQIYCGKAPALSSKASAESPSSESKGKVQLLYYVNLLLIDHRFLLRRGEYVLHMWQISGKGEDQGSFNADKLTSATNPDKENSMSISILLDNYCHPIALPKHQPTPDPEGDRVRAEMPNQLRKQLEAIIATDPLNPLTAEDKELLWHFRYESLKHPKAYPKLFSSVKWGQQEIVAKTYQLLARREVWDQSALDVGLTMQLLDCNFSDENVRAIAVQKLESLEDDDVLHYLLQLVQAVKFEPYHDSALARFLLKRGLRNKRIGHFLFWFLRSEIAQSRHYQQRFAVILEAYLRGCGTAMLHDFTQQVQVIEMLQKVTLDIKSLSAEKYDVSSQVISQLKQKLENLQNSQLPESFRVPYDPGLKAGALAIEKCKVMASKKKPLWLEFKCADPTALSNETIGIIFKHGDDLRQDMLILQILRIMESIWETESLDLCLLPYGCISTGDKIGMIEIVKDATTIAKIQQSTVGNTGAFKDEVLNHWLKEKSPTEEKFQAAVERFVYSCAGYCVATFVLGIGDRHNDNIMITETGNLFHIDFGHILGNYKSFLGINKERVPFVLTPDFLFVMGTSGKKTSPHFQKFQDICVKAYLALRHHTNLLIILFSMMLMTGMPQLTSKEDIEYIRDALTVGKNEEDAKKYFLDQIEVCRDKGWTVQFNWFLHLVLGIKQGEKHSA

By IC50 is commonly meant the concentration at which inhibition is half-maximal. Consider `Nc1ccc(-c2nc(N3CC4CCC(C3)O4)c3cnn(C4CCC5(CC4)OCCO5)c3n2)cc1` [Example 81, 4-[1-(1,4-dioxaspiro[4.5]dec-8-yl)-4-(8-oxa-3-azabicyclo[3.2.1]oct-3-yl)-1H-pyrazolo[3,4-d]pyrimidin-6-yl]aniline], for which the IC50 against Human mTOR (FLAG-TOR) is 54 nM; at PI3K [1], above 10000 nM; at PI3K [2], above 10000 nM; with prostate line LNCap, 1050 nM; with breast line MDA468, 5800 nM.

In the case of `CNC(=O)Nc1ccc(-c2nc(N3CC4CCC(C3)O4)c3cnn(C4CCN(C(=O)C(C)C)CC4)c3n2)cc1` [Example 82, 1-{4-[1-(1-isobutyrylpiperidin-4-yl)-4-(8-oxa-3-azabicyclo[3.2.1]oct-3-yl)-1H-pyrazolo[3,4-d]pyrimidin-6-yl]phenyl}-3-methylurea], the IC50 at Human mTOR (FLAG-TOR) is 0.58 nM; at PI3K [1], 1710 nM; at PI3K [2] it was above 10000 nM; with prostate line LNCap, 60 nM; with breast line MDA468, 230 nM.

Consider `CCNC(=O)Nc1ccc(-c2nc(N3CC4CCC(C3)O4)c3cnn(C4CCN(C(=O)C(C)C)CC4)c3n2)cc1` [Example 83, 1-ethyl-3-{4-[1-(1-isobutyrylpiperidin-4-yl)-4-(8-oxa-3-azabicyclo[3.2.1]oct-3-yl)-1H-pyrazolo[3,4-d]pyrimidin-6-yl]phenyl}urea], for which the IC50 was 0.76 nM at Human mTOR (FLAG-TOR); 2350 nM on PI3K [1]; above 10000 nM on PI3K [2]; 40 nM in the assay with prostate line LNCap; 240 nM in the assay with breast line MDA468.

As to `CC(C)C(=O)N1CCC(n2ncc3c(N4CC5CCC(C4)O5)nc(-c4ccc(NC(=O)NCCO)cc4)nc32)CC1` [Example 84, 1-(2-hydroxyethyl)-3-{4-[1-(1-isobutyrylpiperidin-4-yl)-4-(8-oxa-3-azabicyclo[3.2.1]oct-3-yl)-1H-pyrazolo[3,4-d]pyrimidin-6-yl]phenyl}urea], the half-maximal inhibitory concentration (IC50) on Human mTOR (FLAG-TOR) is 0.56 nM; at PI3K [1] it was 1980 nM; on PI3K [2], above 10000 nM; with prostate line LNCap, 1010 nM; in the assay with breast line MDA468, 1200 nM.

Regarding `CC(C)C(=O)N1CCC(n2ncc3c(N4CC5CCC(C4)O5)nc(-c4ccc(NC(=O)NCCF)cc4)nc32)CC1` [Example 85, 1-(2-fluoroethyl)-3-{4-[1-(1-isobutyrylpiperidin-4-yl)-4-(8-oxa-3-azabicyclo[3.2.1]oct-3-yl)-1H-pyrazolo[3,4-d]pyrimidin-6-yl]phenyl}urea], the IC50 on Human mTOR (FLAG-TOR) is 0.47 nM; at PI3K [1], 2640 nM; at PI3K [2], above 10000 nM; with prostate line LNCap it was 90 nM; with breast line MDA468 it was 300 nM.

As to `CC(C)C(=O)N1CCC(n2ncc3c(N4CC5CCC(C4)O5)nc(-c4ccc(NC(=O)NC5CC5)cc4)nc32)CC1` [Example 86, 1-cyclopropyl-3-{4-[1-(1-isobutyrylpiperidin-4-yl)-4-(8-oxa-3-azabicyclo[3.2.1]oct-3-yl)-1H-pyrazolo[3,4-d]pyrimidin-6-yl]phenyl}urea], the IC50 was 0.66 nM at Human mTOR (FLAG-TOR); 4240 nM at PI3K [1]; above 10000 nM at PI3K [2]; 80 nM with prostate line LNCap; 350 nM in the assay with breast line MDA468.

In the case of `CC(C)C(=O)N1CCC(n2ncc3c(N4CC5CCC(C4)O5)nc(-c4ccc(NC(=O)Nc5ccccc5)cc4)nc32)CC1` [Example 87, 1-{4-[1-(1-isobutyrylpiperidin-4-yl)-4-(8-oxa-3-azabicyclo[3.2.1]oct-3-yl)-1H-pyrazolo[3,4-d]pyrimidin-6-yl]phenyl}-3-phenylurea], the IC50 came out at 0.8 nM on Human mTOR (FLAG-TOR); 396 nM on PI3K [1]; 7020 nM on PI3K [2]; 30 nM in the assay on prostate line LNCap; 120 nM with breast line MDA468.

Turning to `CC(C)C(=O)N1CCC(n2ncc3c(N4CC5CCC(C4)O5)nc(-c4ccc(NC(=O)Nc5cccnc5)cc4)nc32)CC1` [Example 88, 1-{4-[1-(1-isobutyrylpiperidin-4-yl)-4-(8-oxa-3-azabicyclo[3.2.1]oct-3-yl)-1H-pyrazolo[3,4-d]pyrimidin-6-yl]phenyl}-3-pyridin-3-ylurea], the IC50 worked out at 0.3 nM against Human mTOR (FLAG-TOR); 454 nM on PI3K [1]; 3820 nM on PI3K [2]; 60 nM in the assay on prostate line LNCap; 130 nM in the assay on breast line MDA468.

For the compound `CC(C)C(=O)N1CCC(n2ncc3c(N4CC5CCC(C4)O5)nc(-c4ccc(NC(=O)Nc5ccncc5)cc4)nc32)CC1` [Example 89, 1-{4-[1-(1-isobutyrylpiperidin-4-yl)-4-(8-oxa-3-azabicyclo[3.2.1]oct-3-yl)-1H-pyrazolo[3,4-d]pyrimidin-6-yl]phenyl}-3-pyridin-4-ylurea], the IC50 was found to be 0.26 nM against Human mTOR (FLAG-TOR); 301 nM on PI3K [1]; 2380 nM at PI3K [2]; 15 nM in the assay with prostate line LNCap; 63 nM in the assay on breast line MDA468.

Consider `O=C(Nc1ccc(-c2nc(N3CC4CCC(C3)O4)c3cnn(C4CCCCO4)c3n2)cc1)Nc1cccnc1` (centres unmarked) [Example 90, 1-{4-[4-(8-oxa-3-azabicyclo[3.2.1]oct-3-yl)-1-(tetrahydro-2H-pyran-2-yl)-1H-pyrazolo[3,4-d]pyrimidin-6-yl]phenyl}-3-pyridin-3-ylurea], for which the IC50 against Human mTOR (FLAG-TOR) is 0.39 nM; at PI3K [1] it was 412 nM; at PI3K [2], 4330 nM; in the assay on prostate line LNCap, 12 nM; in the assay on breast line MDA468 it was 60 nM.

As for `O=C(Nc1ccc(-c2nc(N3CC4CCC(C3)O4)c3cn[nH]c3n2)cc1)Nc1cccnc1` [Example 91, 1-{4-[4-(8-oxa-3-azabicyclo[3.2.1]oct-3-yl)-1H-pyrazolo[3,4-d]pyrimidin-6-yl]phenyl}-3-pyridin-3-ylurea], the IC50 was found to be 0.49 nM on Human mTOR (FLAG-TOR); 306 nM at PI3K [1]; 2640 nM at PI3K [2]; 500 nM with prostate line LNCap; 120 nM in the assay on breast line MDA468.

`COC(=O)Nc1ccc(-c2nc(N3CC4CCC(C3)O4)c3cnn(C(C)(C)C)c3n2)cc1` [Example 92]: the IC50 against Human mTOR (FLAG-TOR) was 11.7 nM; at PI3K [1], above 10000 nM; on PI3K [2] it was above 10000 nM; with prostate line LNCap, 1800 nM; in the assay with breast line MDA468, 30000 nM.

As to `CNC(=O)Nc1ccc(-c2nc(N3CC4CCC(C3)O4)c3cnn(C(C)(C)C)c3n2)cc1` [Example 93], the IC50 against Human mTOR (FLAG-TOR) was 0.41 nM; on PI3K [1] it was 202 nM; on PI3K [2], above 10000 nM; with prostate line LNCap, 23 nM; in the assay with breast line MDA468, 170 nM.

With `CCNC(=O)Nc1ccc(-c2nc(N3CC4CCC(C3)O4)c3cnn(C(C)(C)C)c3n2)cc1` [Example 94], the IC50 against Human mTOR (FLAG-TOR) was 0.51 nM; at PI3K [1], 804 nM; at PI3K [2], above 10000 nM; in the assay on prostate line LNCap it was 50 nM; in the assay with breast line MDA468, 490 nM.

Consider `CC(C)(C)n1ncc2c(N3CC4CCC(C3)O4)nc(-c3ccc(NC(=O)NCCF)cc3)nc21` [Example 95], for which the IC50 against Human mTOR (FLAG-TOR) was 0.61 nM; on PI3K [1], 1060 nM; at PI3K [2] it was above 10000 nM; in the assay with prostate line LNCap, 17 nM; in the assay with breast line MDA468, 280 nM.

With `CC(C)(C)n1ncc2c(N3CC4CCC(C3)O4)nc(-c3ccc(NC(=O)NC4CC4)cc3)nc21` [Example 96], the IC50 against Human mTOR (FLAG-TOR) is 0.4 nM; at PI3K [1], 1140 nM; at PI3K [2], above 10000 nM; in the assay with prostate line LNCap it was 1700 nM; in the assay on breast line MDA468, above 60000 nM.

`CC(C)(C)n1ncc2c(N3CC4CCC(C3)O4)nc(-c3ccc(NC(=O)NCCO)cc3)nc21` [Example 97]: the half-inhibitory concentration (IC50) at Human mTOR (FLAG-TOR) was 0.34 nM; on PI3K [1], 282 nM; at PI3K [2] it was 9500 nM; in the assay on prostate line LNCap, 20 nM; in the assay on breast line MDA468, 180 nM.

Take `CC(C)(C)n1ncc2c(N3CC4CCC(C3)O4)nc(-c3ccc(NC(=O)OCCO)cc3)nc21` [Example 98]: the IC50 was 0.98 nM on Human mTOR (FLAG-TOR); 1420 nM on PI3K [1]; above 10000 nM at PI3K [2]; 90 nM in the assay on prostate line LNCap; 620 nM with breast line MDA468.

Consider `CC(C)(C)n1ncc2c(N3CC4CCC(C3)O4)nc(-c3ccc(NC(=O)Nc4ccccc4)cc3)nc21` [Example 99], for which the IC50 against Human mTOR (FLAG-TOR) amounted to 1.8 nM; on PI3K [1], 130 nM; on PI3K [2], 577 nM; in the assay on prostate line LNCap, 68 nM; in the assay with breast line MDA468, 280 nM.

As for `CC(C)(C)n1ncc2c(N3CC4CCC(C3)O4)nc(-c3ccc(NC(=O)Nc4cccnc4)cc3)nc21` [Example 100], the IC50 at Human mTOR (FLAG-TOR) was found to be 0.63 nM; on PI3K [1] it was 149 nM; on PI3K [2], 794 nM; with prostate line LNCap, 20 nM; in the assay on breast line MDA468 it was 130 nM.

`CC(C)(C)n1ncc2c(N3CC4CCC(C3)O4)nc(-c3ccc(NC(=O)Nc4ccncc4)cc3)nc21` [Example 101]: the IC50 on Human mTOR (FLAG-TOR) came out at 0.53 nM; on PI3K [1], 178 nM; on PI3K [2] it was 727 nM; with prostate line LNCap, 19 nM; in the assay with breast line MDA468, 110 nM.

As for `Oc1cccc(-c2nc(N3CC4CCC(C3)O4)c3cnn(-c4ccccc4)c3n2)c1` [Example 102, 3-[4-(8-oxa-3-azabicyclo[3.2.1]oct-3-yl)-1-phenyl-1H-pyrazolo[3,4-d]pyrimidin-6-yl]phenol], the IC50 against Human mTOR (FLAG-TOR) is 16 nM; on PI3K [1], 1170 nM; on PI3K [2] it was 7820 nM; in the assay on prostate line LNCap, 1300 nM; in the assay on breast line MDA468, 5000 nM.

These data come from US8129371B2, “Thienopyrimidine and pyrazolopyrimidine compounds and their use as mTOR kinase and PI3 kinase inhibitors” (Wyeth LLC, priority 2007, dated 2012).
